This note sets out measurements from US4727080A, “1-substituted derivatives of 6-fluoro-7-(pyrrol-1-yl)-1,4-dihydro-4-oxoquinoline-3-carboxylic acid, their preparation and their application as drugs” (Provesan S.A., priority 1984, dated 1988).

Values after ≈ are worked out from the molar mass of the structure shown. Some results are limits rather than exact numbers.

The test system of data set [1] is Bacillus subtilis ATCC 6633. As to the kind of experiment: "In vitro" MIC, Bacillus subtilis. The class given is cell-based. The note with it: ATCC6633; Bacillus subtilis ATCC 6633; dextrose agar, 37° C., 20 hours; read-out: "In vitro" MIC. The procedure:
(§1) Antimicrobial pharmacological activity (G. L. Daquet and Y. A. Chabbect, Techniques en bacteriologie (Techniques in bacteriology), vol. 3, Flammarion Medecine-Sciences, Paris, 1972, and W. B. Hugo and A. D. Rusell, Pharmaceutical Microbiology, Blackwell Scientific Publications, London (1977).
Bacillus subtilis ATCC 6633
(§2) A streak culture of each of the microorganisms is formed in tubes of antibiotics agar no. 1 and incubated for 20 hours at 37° C. A culture loop is then taken and a culture is formed in a tryptone-soya broth and incubated for 20 hours at 37° C. The resulting culture is diluted to 1/4 with Ringer's physiological solution to give a standardized suspension of 10^5 ufc/ml for each organism.
(§3) Starting from a solution of 1000 μg/ml in 0.1N NaOH, each product is diluted successively in dextrose agar (melted beforehand and kept at 50° C.) to give the following concentrations: 64-32-16-8-4-2-1-0.5-0.25-0.125 μg of derivative/ml of medium.
(§4) After this, each concentration of each product is divided up into Petri dishes of 10 cm diameter at a rate of 10 ml of medium per dish and using as many dishes as there are microorganisms to be tested.
(§5) Once the medium has cooled, the dishes are treated with the inoculations at a rate of 0.4 ml of inoculation per dish. They are spread out with a Drigalski loop and the supernatant is collected. The inoculated dishes are incubated at 37° C. for 20 hours.

In data set [2] the test system is Micrococcus flavus ATCC 10240. Briefly: "In vitro" MIC, Micrococcus flavus. The data set is classed as cell-based. The note with it: ATCC10240; Micrococcus flavus ATCC 10240; dextrose agar, 37° C., 20 hours; read-out: "In vitro" MIC. As to the method: as §1
Micrococcus flavus ATTC 10240
as §2, §3, §4, §5

The test system of another data set is Sarcina lutea ATCC 9341. Briefly: "In vitro" MIC, Sarcina lutea. The class given is cell-based. The note with it: Micrococcus luteus, ATCC9341; Sarcina lutea ATCC 9341; dextrose agar, 37° C., 20 hours; read-out: "In vitro" MIC. As to the method:
as §1, §2, §3, §4, §5

The test system of data set [3] is Staphylococcus aureus ATCC 5488/23. As to the kind of experiment: "In vitro" MIC, Staphylococcus aureus ATCC 5488/23. The class given is cell-based. The note with it: ATCC5488; Staphylococcus aureus ATCC 5488/23; dextrose agar, 37° C., 20 hours; read-out: "In vitro" MIC. The procedure:
as §1
Staphylococcus aureus ATCC 5488/23
as §2, §3, §4, §5

Data set [4] deals with Staphylococcus aureus ATCC 25178. Briefly: "In vitro" MIC, Staphylococcus aureus ATCC 25178. The data set is classed as cell-based. Conditions: ATCC25178; Staphylococcus aureus ATCC 25178; dextrose agar, 37° C., 20 hours; read-out: "In vitro" MIC. As to the method: as §1
Staphylococcus aureus ATCC 25178
as §2, §3, §4, §5

Data set [5] relates to Streptococcus faecalis ATCC 10541. As to the kind of experiment: "In vitro" MIC, Streptococcus faecalis. The note with it: Enterococcus faecalis, ATCC10541; Streptococcus faecalis ATCC 10541; dextrose agar, 37° C., 20 hours; read-out: "In vitro" MIC. The class given is cell-based. The procedure: as §1
Streptococcus faecalis ATCC 10541
as §2, §3, §4, §5

The subject of data set [6] is Enterobacter aerogenes ATCC 15038. Briefly: "In vitro" MIC, Enterobacter aerogenes. The data set is classed as cell-based. The note with it: Klebsiella aerogenes, ATCC15038; Enterobacter aerogenes ATCC 15038; dextrose agar, 37° C., 20 hours; read-out: "In vitro" MIC. As to the method: as §1
Enterobacter aerogenes ATCC 15038
as §2, §3, §4, §5

Data set [7] concerns Enterobacter cloacae CHSP-20. Briefly: "In vitro" MIC, Enterobacter cloacae. The data set is classed as cell-based. The note with it: CHSP20; Enterobacter cloacae CHSP-20; dextrose agar, 37° C., 20 hours; read-out: "In vitro" MIC. The procedure:
as §1
Enterobacter cloacae CHSP-20
as §2, §3, §4, §5

The test system of data set [8] is Escherichia coli ATCC 10536. As to the kind of experiment: "In vitro" MIC, Escherichia coli ATCC 10536. The class given is cell-based. Conditions: ATCC10536; Escherichia coli ATCC 10536; dextrose agar, 37° C., 20 hours; read-out: "In vitro" MIC. As to the method:
as §1
Escherichia coli ATCC 10536
as §2, §3, §4, §5

In the next data set the test system is Escherichia coli R-1513. Briefly: "In vitro" MIC, Escherichia coli R-1513. The class given is cell-based. Conditions: R1513; Escherichia coli R-1513; dextrose agar, 37° C., 20 hours; read-out: "In vitro" MIC. The procedure:
as §1, §2, §3, §4, §5

The subject of data set [9] is Klebsiella pneumoniae ATCC 10031. As to the kind of experiment: "In vitro" MIC, Klebsiella pneumoniae. The data set is classed as cell-based. The note with it: ATCC10031; Klebsiella pneumoniae ATCC 10031; dextrose agar, 37° C., 20 hours; read-out: "In vitro" MIC. As to the method:
as §1
Klebsiella pneumoniae ATCC 10031
as §2, §3, §4, §5

In data set [10] the test system is Citrobacter freundii ATCC 11606. Briefly: "In vitro" MIC, Citrobacter freundii. The class given is cell-based. Conditions: ATCC11606; Citrobacter freundii ATCC 11606; dextrose agar, 37° C., 20 hours; read-out: "In vitro" MIC. The procedure: as §1
Citrobacter freundii ATCC 11606
as §2, §3, §4, §5

For data set [11], the system named is Proteus mirabilis ATCC 4675. Briefly: "In vitro" MIC, Proteus mirabilis. The class given is cell-based. Conditions: ATCC4675; Proteus mirabilis ATCC 4675; dextrose agar, 37° C., 20 hours; read-out: "In vitro" MIC. The procedure: as §1
Proteus mirabilis ATCC 4675
as §2, §3, §4, §5

Another data set relates to Proteus morganii CHSP-16. Briefly: "In vitro" MIC, Proteus morganii. The note with it: Morganella morganii, CHSP16; Proteus morganii CHSP-16; dextrose agar, 37° C., 20 hours; read-out: "In vitro" MIC. The data set is classed as cell-based. The procedure: as §1, §2, §3, §4, §5
Data set [12] concerns Pseudomonas aeruginosa 25115. As to the kind of experiment: "In vitro" MIC, Pseudomonas aeruginosa 25115. Conditions: Pseudomonas aeruginosa 25115; dextrose agar, 37° C., 20 hours; read-out: "In vitro" MIC. The data set is classed as cell-based. The procedure: as §1
Pseudomonas aeruginosa 25115
as §2, §3, §4, §5

Data set [13] concerns Pseudomonas aeruginosa ADSA 47. As to the kind of experiment: "In vitro" MIC, Pseudomonas aeruginosa ADSA 47. The data set is classed as cell-based. Conditions: ADSA47; Pseudomonas aeruginosa ADSA 47; dextrose agar, 37° C., 20 hours; read-out: "In vitro" MIC. As to the method: as §1
Pseudomonas aeruginosa ADSA 47
as §2, §3, §4, §5

Data set [14] concerns Salmonella typhimurium AMES 98. Briefly: "In vitro" MIC, Salmonella typhimurium AMES 98. The class given is cell-based. Conditions: Salmonella enterica; Salmonella typhimurium AMES 98; dextrose agar, 37° C., 20 hours; read-out: "In vitro" MIC. The procedure:
as §1
Salmonella typhimurium AMES 98
as §2, §3, §4, §5

In data set [15] the test system is Salmonella typhimurium AMES 100. Briefly: "In vitro" MIC, Salmonella typhimurium AMES 100. The data set is classed as cell-based. The note with it: Salmonella enterica; Salmonella typhimurium AMES 100; dextrose agar, 37° C., 20 hours; read-out: "In vitro" MIC. The procedure:
as §1
Salmonella typhimurium AMES 100
as §2, §3, §4, §5

Data set [16] concerns Serratia marcescens ATTC 13880. As to the kind of experiment: "In vitro" MIC, Serratia marcescens. The data set is classed as cell-based. Conditions: ATTC13880; Serratia marcescens ATTC 13880; dextrose agar, 37° C., 20 hours; read-out: "In vitro" MIC. As to the method:
as §1
Serratia marcescens ATTC 13880
as §2, §3, §4, §5

The subject of the next data set is Shigella flexnerii. As to the kind of experiment: "In vitro" MIC, Shigella flexnerii. The class given is cell-based. Conditions: 20 h, read-out: "In vitro" MIC. As to the method: as §1, §2, §3, §4, §5
A further data set can be described thus: Acute toxicity to mice. Conditions: mouse, in vivo, ip, suspension in 5% gum arabic, mortality over 7 days. The procedure: The experimental animals used to determine this toxicity were albino mice of the C.F.L.P. strain and of both sexes, weighing between 19 and 25 grams. After an 18-hour fasting period with water "ad libitum", the derivatives forming the subject of the present invention are administered intraperitoneally as a suspension in 5% gum arabic. The volume of suspension administered was 0.4 ml/20 grams (20 ml/kg) in all cases, the concentration of the suspension being changed according to the dose administered.
One hour after administration of the derivatives, the animals are given a standard Panlab rat-mouse food. The mortality was observed over a period of 7 days. Differences in mortality between the sexes were not observed with any of the products.

Data set [17] has as its system Enterobacteriaceae (Pseudomonas aeruginosa). As to the kind of experiment: "In vitro" antimicrobial activity compared with nalidixic acid, Enterobacteriaceae (Pseudomonas aeruginosa). The class given is cell-based. As to the method: as §1, §2, §3, §4, §5
In a further data set the test system is Gram-positive cocci. Briefly: "In vitro" antimicrobial activity compared with nalidixic acid, Gram-positive cocci. The class given is cell-based. The procedure:
as §1, §2, §3, §4, §5

As to `C=Cn1cc(C(=O)O)c(=O)c2cc(F)c(-n3cccc3)cc21` [Example 3, 6-fluoro-7-(pyrrol-1-yl)-1-vinyl-4-oxo-1,4-dihydroquinoline-3-carboxylic acid], the minimum inhibitory concentration (MIC) in data set [1] was at most 0.062 µg/mL; in data set [2] it was 4 µg/mL (≈ 13.4 µM); with Sarcina lutea ATCC 9341, 8 µg/mL (≈ 26.8 µM); in data set [3], 0.5 µg/mL (≈ 1.68 µM); in data set [4], 0.5 µg/mL (≈ 1.68 µM); in [5], 16 µg/mL (≈ 53.6 µM). The MIC in data set [6] turned out to be 1 µg/mL (≈ 3.35 µM); in data set [7] it was 1 µg/mL (≈ 3.35 µM); in [8], 0.125 µg/mL (≈ 0.419 µM); in the data set on Escherichia coli R-1513, 1 µg/mL (≈ 3.35 µM); in [9], 0.5 µg/mL (≈ 1.68 µM); in data set [10], 1 µg/mL (≈ 3.35 µM). Further, the MIC is 2 µg/mL (≈ 6.71 µM) in data set [11]; 2 µg/mL (≈ 6.71 µM) in the data set on Proteus morganii CHSP-16; 4 µg/mL (≈ 13.4 µM) in data set [12]; 8 µg/mL (≈ 26.8 µM) in [13]; at most 0.062 µg/mL in data set [14]; 0.5 µg/mL (≈ 1.68 µM) in data set [15]. The MIC (in data set [16]; with Shigella flexnerii) was 1 µg/mL (≈ 3.35 µM) throughout. This molecule came in with an LD50 at 168 h in “Acute toxicity to mice” above 1600 mg/kg. Also, the “"in vitro" activity compared with nalidixic acid” value (in data set [17]; in the data set on Gram-positive cocci) was “greater "in vitro" activity than nalidixic acid” in each case.
